According to ChEMBL document CHEMBL5725686, “G protein-coupled receptor kinase 2 inhibitors and methods for use of the same” (2018):
pIC50: −log10 of the molar value.

Columns and labels:
[1] = target: G protein-coupled receptor kinase 5 (Homo sapiens, UniProt P34947); experiment: The low salt concentration and DDM were used to maximize GRK activity and disrupt small molecule aggregates from forming, respectively. […] Data was analyzed and inhibition curves were fit via GraphPad Prism.
Rhodopsin kinase GRK1 = target: T1, Rhodopsin kinase GRK1 (Homo sapiens, UniProt Q15835); experiment: The low salt concentration and DDM were used to maximize GRK activity and disrupt small molecule aggregates from forming, respectively. Reactions were quenched with SDS loading buffer, separated via SDS-PAGE, dried and exposed with a phosphorimaging screen prior to quantification via Typhoon imager, as previously reported (see Thal et al., ACS Chemical Biology 7(11):1830-1839 (2012)). Data was analyzed and inhibition curves were fit via GraphPad Prism.
T1 sequence (Q15835 whole entry): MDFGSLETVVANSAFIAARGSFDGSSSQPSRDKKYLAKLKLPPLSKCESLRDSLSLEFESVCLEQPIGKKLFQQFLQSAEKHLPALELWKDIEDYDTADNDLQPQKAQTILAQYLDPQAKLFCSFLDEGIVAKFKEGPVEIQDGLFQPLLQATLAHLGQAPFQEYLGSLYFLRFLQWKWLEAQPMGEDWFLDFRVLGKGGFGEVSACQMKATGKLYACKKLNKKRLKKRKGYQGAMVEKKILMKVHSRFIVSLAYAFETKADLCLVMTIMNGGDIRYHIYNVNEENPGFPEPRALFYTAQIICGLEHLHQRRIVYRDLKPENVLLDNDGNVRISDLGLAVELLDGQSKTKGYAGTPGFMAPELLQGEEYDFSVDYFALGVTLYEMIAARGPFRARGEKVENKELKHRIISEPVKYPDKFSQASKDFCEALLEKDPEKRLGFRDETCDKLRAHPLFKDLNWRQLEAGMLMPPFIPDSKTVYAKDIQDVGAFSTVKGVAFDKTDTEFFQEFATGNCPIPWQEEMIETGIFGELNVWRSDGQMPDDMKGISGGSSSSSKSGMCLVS

Chain of G protein-coupled receptor kinase 5 (P34947 whole entry): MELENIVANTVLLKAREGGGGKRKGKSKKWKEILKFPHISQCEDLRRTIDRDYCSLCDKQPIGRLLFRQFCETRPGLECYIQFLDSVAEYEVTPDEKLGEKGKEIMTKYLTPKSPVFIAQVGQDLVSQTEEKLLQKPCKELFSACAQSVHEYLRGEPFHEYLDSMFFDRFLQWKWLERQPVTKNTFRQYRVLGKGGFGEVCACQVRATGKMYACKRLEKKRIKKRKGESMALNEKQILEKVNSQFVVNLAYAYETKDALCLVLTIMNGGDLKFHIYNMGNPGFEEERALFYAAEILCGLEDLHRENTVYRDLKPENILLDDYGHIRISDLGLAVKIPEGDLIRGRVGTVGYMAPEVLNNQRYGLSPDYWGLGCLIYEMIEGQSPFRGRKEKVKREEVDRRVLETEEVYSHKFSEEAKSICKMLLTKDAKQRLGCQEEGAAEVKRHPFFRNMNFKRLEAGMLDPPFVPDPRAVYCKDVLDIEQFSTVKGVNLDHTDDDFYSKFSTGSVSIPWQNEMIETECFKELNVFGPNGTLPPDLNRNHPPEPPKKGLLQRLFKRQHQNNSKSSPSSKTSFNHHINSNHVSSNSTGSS

| pIC50 [1] | Structure (SMILES) | pIC50 (Rhodopsin kinase GRK1) |
| --- | --- | --- |
| 5.27 | CC1=C(C(=O)Nc2ccc3[nH]ncc3c2)C(c2ccc(F)c(C(=O)NCc3nccc4ccccc34)c2)NC(=O)N1 (centres undefined) |  |
| 5.05 | C#CCN(CC(C)C)C(=O)Cc1cc(C2NC(=O)NC(C)=C2C(=O)Nc2ccc3[nH]ncc3c2)ccc1F (centres undefined) |  |
| 5.36 | C#CCN(Cc1ccco1)C(=O)Cc1cc(C2NC(=O)NC(C)=C2C(=O)Nc2ccc3[nH]ncc3c2)ccc1F (centres undefined) |  |
|  | CC1=C(C(=O)Nc2ccc3[nH]ncc3c2)C(c2ccc(F)c(CC(=O)N(CCO)Cc3ccco3)c2)NC(=O)N1 (centres undefined) | 4.68 |
